Measurements: article PMC12209172, “Poly(ADP-ribose)polymerase 2 is zinc-dependent enzyme and nucleosome reorganizer” (Cellular and Molecular Life Sciences: CMLS, 2025)

Experiments:
[1] = biological target: T1, WGR domain-nucleosome complexes (Homo sapiens, UniProt Q9UGN5); assay: spFRET microscopy of WGR domain-nucleosome complexes; details: Np nucleosomes, WGR domain plus 2 mM Zn2+
T1 construct: WGR domain of PARP2 (residues 77–220) into pET-15b-TEV expression vector; 6xHis (pET-15b-TEV) (N, cleaved yes); made in house; host or cells: Escherichia coli Rosetta2 (DE3) pLysS (WGR)
Description: In the study of nucleosome-PARP2 interactions, nucleosomes (1–2 nM) were incubated with PARP2 (12.5–200 nM) in buffer A (50 mM Tris-HCl pH 7.5; 40 mM NaCl; 0.5 mM β-mercaptoethanol (β-ME); 0.1% NP40) at 25 °C for 30 min. When indicated, buffer A was supplemented with 50 µM – 5 mM ZnCl2, 5 mM CaCl2 or 5 mM MgCl2. To study the stability of Zn^2+-PARP2-nucleosome complexes, PARP2-nucleosome complexes that have been formed for 30 min in buffer A containing 50 nM PARP2 and 0.15 mM Zn^2+ ions were mixed with EDTA (10 mM) and incubated for 15 min. In the studies of PARylation, NAD+ (0.5–10 µM) was mixed with nucleosomes (1–2 nM) and PARP2 (100 nM) in buffer A and incubated for 45 min at 25 °C.
spFRET measurements in solution were performed as described previously. Each measured single nucleosome was characterized by FRET between Cy3 and Cy5 labels calculated as a proximity ratio (EPR):1 [drawing 1]
Where I3 and I5 are fluorescence intensities of Cy3 and Cy5, respectively, and coefficients 0.19 and 0.81 provide correction for the spectral cross-talk between Cy3 and Cy5 detection channels. […] Relative frequency distributions of nucleosomes by EPR values, i.e. EPR profiles, (2000–5000 nucleosomes per experiment; 3 independent experiments) were plotted and further analyzed as a superposition of several normal (Gaussian) distributions for nucleosomes or nucleosome-PARP2 complexes. […]

PARP2 = PARP2 (Mus musculus, UniProt O88554); assay: Circular dichroism spectroscopy of PARP2 (BeStSel secondary structure analysis); parameters: Recombinant mouse full-length PARP2 was obtained in the baculovirus expression system; made in house; host or cells: Sf9 insect cells (baculovirus); gift of Prof; O. Lavrik; details: 0.3 mM Zn2+, 0.7 mM Ca2+ or 0.7 mM Mg2+
PARP2, sequence (O88554 whole entry): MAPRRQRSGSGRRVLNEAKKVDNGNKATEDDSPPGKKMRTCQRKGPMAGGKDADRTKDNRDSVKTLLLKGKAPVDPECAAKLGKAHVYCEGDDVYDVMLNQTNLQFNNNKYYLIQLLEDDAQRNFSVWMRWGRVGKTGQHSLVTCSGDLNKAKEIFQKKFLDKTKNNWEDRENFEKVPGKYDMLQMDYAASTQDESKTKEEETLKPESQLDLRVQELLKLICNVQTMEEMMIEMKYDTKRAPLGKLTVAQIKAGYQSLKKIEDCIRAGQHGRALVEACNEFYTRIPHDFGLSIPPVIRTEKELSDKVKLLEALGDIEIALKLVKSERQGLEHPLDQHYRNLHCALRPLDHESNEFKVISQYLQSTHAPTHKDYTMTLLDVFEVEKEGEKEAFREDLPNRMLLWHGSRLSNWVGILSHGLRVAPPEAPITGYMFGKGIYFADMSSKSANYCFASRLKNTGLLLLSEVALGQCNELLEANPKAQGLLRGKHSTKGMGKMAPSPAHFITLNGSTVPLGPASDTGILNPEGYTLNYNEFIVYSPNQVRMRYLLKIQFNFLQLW
Description: CD spectra of proteins were recorded within the 190-250 nm spectral range with 0.2 nm step using Jasco-810 spectrophotometer (Jasco, Japan) and the quartz […]® cuvette of 0.1 mm thickness (Hellma, Germany. Secondary structure analysis was performed using BeStSel webserver. To improve the reliability of the analysis, the content of canonical secondary structures of various types was predicted for 3-6 independent measurements, and the values were averaged. The statistical significance of the secondary structure difference was determined using the multiple t-test.

[2] = biological target: T2, PARP2-nucleosome complexes (Mus musculus, UniProt O88554); assay: spFRET microscopy in solution of nucleosomes and PARP2-nucleosome complexes; details: for EPR centre of the structural state of nucleosomes: PARP2 plus 0.3 mM Zn2+
T2 construct: Recombinant mouse full-length PARP2 was obtained in the baculovirus expression system; made in house; host or cells: PARP2: Sf9 insect cells (baculovirus), gift of Prof; O. Lavrik; nucleosomes assembled in house
Description: In the study of nucleosome-PARP2 interactions, nucleosomes (1-2 nM) were incubated with PARP2 (12.5-200 nM) in buffer A (50 mM Tris-HCl pH 7.5; 40 mM NaCl; 0.5 mM β-mercaptoethanol (β-ME); 0.1% NP40) at 25 °C for 30 min. When indicated, buffer A was supplemented with 50 μM - 5 mM ZnCl2, 5 mM CaCl2 or 5 mM MgCl2. […] […] measurements in solution were performed as described previously. Each measured single nucleosome was characterized by FRET between Cy3 and Cy5 labels calculated as a proximity ratio (EPR):1 [drawing 1] Where I3 and I5 are fluorescence intensities of Cy3 and Cy5, respectively, and coefficients 0.19 and 0.81 provide correction for the spectral cross-talk between Cy3 and Cy5 detection channels. EPR is a FRET efficiency not corrected for quantum yields of labels and an instrumentation factor. Relative frequency distributions of nucleosomes by EPR values, i.e. EPR profiles, (2000-5000 nucleosomes per experiment; 3 independent experiments) were plotted and further analyzed as a superposition of several normal (Gaussian) distributions for nucleosomes or nucleosome-PARP2 complexes. Since nucleosomes tend to aggregate when PARP2 is added (especially at high concentrations), treatment of signals measured from nucleosomes and their complexes included mandatory rejection of signals from any aggregates that are clearly recognized due to their slow diffusion rate and/or abnormally high fluorescence intensity.

EPR maximum of the new peak in the EPR profile [1]: 0.4 | effect of ions on the CD spectrum / conformation of PARP2 (PARP2): small conformational changes | effect of ions on the nucleosome structure ([2]; NP nucleosomes without PARP2, 5 mM ions): minimally affect | EPR centre of the new peak in the EPR profile ([2]; NP nucleosomes, PARP2 plus Zn2+): 0.4 | EPR centre of the structural state of nucleosomes ([2]; Nd nucleosomes): 0.5 | EPR centre of the structural state of nucleosomes ([2]; Nm nucleosomes): 0.4 | Zn2+ concentration above which the structure of PARP2-nucleosome complexes is affected ([2]; PARP2 50 nM, NP nucleosomes): higher than 75 µM | Zn2+ concentration at which all the complexes are converted to the altered conformation ([2]; PARP2 50 nM, NP nucleosomes): 150 µM | effect of Zn2+ on the affinity of PARP2 to nucleosomes ([2]; compared with EMSA in the absence of Zn2+): not significantly affected
SMILES: [Cl-].[Cl-].[Zn+2] [Zn2+, ZnCl2]
effect of ions on the structure of nucleosomes in PARP2-nucleosome complexes ([2]; PARP2 50 nM, Zn2+ 0.3 mM, Ca2+ 5 mM or Mg2+ 5 mM): induce alterations in the structure of PARP2-nucleosome complexes
